The structures appear in SMILES notation. Starred links: 1 amine or outer side, 2 acyl side, 3 side chain; linkers in the order of their positions; H or OH if unused. Positions of bridges follow the written chain, without caps; N, C: chain ends. Non-standard residues stand in square brackets, D forms with d. Residues, ends and D or L forms follow the SMILES beside them. Groups on a side chain read outwards from the residue. *: point of attachment. C20 diacid = O=C(O)CCCCCCCCCCCCCCCCCCC(=O)*; γGlu = O=C(O)[C@H](CCC(=O)[*:2])N[*:1]; αMeF = C[C@](N)(Cc1ccccc1)C(=O)O; NMeN = CN[C@@H](CC(N)=O)C(=O)O; αMeL = CC(C)C[C@](C)(N)C(=O)O; Orn = NCCC[C@H](N)C(=O)O; CH2 = C([*:1])[*:2]

In general, Ki refers to the equilibrium dissociation constant of an inhibitor or competing ligand from its target. The Tmax is the time at which the peak concentration occurs. One may read the EC50 as the concentration needed to bring the measured effect to its halfway point. A high value points to weaker potency. The CL/F is the apparent clearance, not corrected for the fraction that reaches the circulation.

The target in data set [1] is T1, human calcitonin receptor (hCTR) (Homo sapiens, UniProt P30988).
T1 construct: expressed in transfected cells; host or cells: membranes of UM-UC-3 (UMUC3) cells stably expressing human CTa
T1 sequence (P30988 25-474): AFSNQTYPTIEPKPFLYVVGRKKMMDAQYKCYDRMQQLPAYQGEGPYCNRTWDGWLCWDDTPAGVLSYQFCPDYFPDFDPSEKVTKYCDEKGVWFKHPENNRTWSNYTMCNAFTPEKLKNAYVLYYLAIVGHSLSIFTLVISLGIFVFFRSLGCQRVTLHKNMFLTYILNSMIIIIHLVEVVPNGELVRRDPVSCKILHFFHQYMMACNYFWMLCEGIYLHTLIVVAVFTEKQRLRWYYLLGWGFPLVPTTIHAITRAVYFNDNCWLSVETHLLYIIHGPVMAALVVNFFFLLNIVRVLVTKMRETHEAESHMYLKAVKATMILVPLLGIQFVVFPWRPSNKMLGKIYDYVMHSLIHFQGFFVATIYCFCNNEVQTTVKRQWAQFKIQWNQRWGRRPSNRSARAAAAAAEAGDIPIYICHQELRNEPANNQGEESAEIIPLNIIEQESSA
The experiment in a line: hCTR competitive radioligand binding filter assay (125I-hCT). To be noted: ± SE; membranes of hCTR overexpressing cells. Here is the method:
The equilibrium dissociation constants (Kd) for the various receptor/radioligand interactions are determined from saturation binding analysis using the same reagents and buffers as described below for compound testing.
The receptor binding affinity (Ki) of rAMY, hCT, and hAMY agonist peptides on hCTR membranes is determined from a competitive radioligand binding filter assay.

A short description of data set [2]: Pharmacokinetics in male Sprague Dawley rats. It is filed as in vivo. To be noted: single SC 30 nmol/kg, mean. Here is the method: (§1) The pharmacokinetics of Compound II (SEQ ID NO:2), Compound IV (SEQ ID NO:4), Compound VI (SEQ ID NO:6), and Compound VIII (SEQ ID NO:8) are evaluated following a single subcutaneous administration of 30 nmol/kg to male Sprague Dawley rats. Blood samples are collected at 1, 3, 6, 12, 24, 48, 72, 96 hours post SC dose. The resulting individual plasma concentrations are used to calculate pharmacokinetic parameters. Peptide plasma (K3EDTA) concentrations are determined using a qualified LC/MS method that measured the intact mass of the peptides. Each peptide and an analog as an internal standard are extracted from plasma. A high resolution Thermo Q-Exactive is used for LC/MS detection.

A further data set concerns CD4+ T cells. The experiment in a line: T cell proliferation assay. To be noted: 7-10 donors with diverse MHC.
Data set [3] relates to pre-existing antibodies (ADA) in normal human serum. As to the kind of experiment: Pre-existing reactivity (ACE assay format). As to conditions: >50 donors; treatment-naive normal human serum. The procedure:
This assay assesses the presence of pre-existing antibodies (ADA) against the tested molecules in treatment-naive normal human serum (NHS). Diluted NHS is incubated overnight on a Pierce Streptavidin plate coated with biotinylated tested molecules. On the following day, the captured binding proteins are acid eluted, hard-coated to a Mesoscale (MSD) plate, and detected with a combination of biotin-labeled molecule and ruthenium-labeled streptavidin. If anti-drug antibodies are present, they will bind the labeled drug and the resulting signal is referred to as Tier 1 signal (expressed as electrochemiluminescence). This signal is confirmed in Tier 2 by adding excess unlabeled tested molecule in the detection step, which results in the suppression of the Tier 1 signal. The presence of pre-existing anti-drug antibodies is expressed as magnitude of the 90th percentile of Tier 2 inhibition. The 90th percentile of Tier 2 inhibition, is a statistical tool to assess the magnitude of specificity of Tier 1 reactivity. This 90th percentile is used to rank molecules in terms of ADA risk.

Data set [4] in a line: Pharmacokinetics in male cynomolgus monkeys. To be noted: single SC 20 nmol/kg, mean. In kind it is in vivo. Here is the method: as §1, with “20” for “30”, “cynomolgus monkeys.” for “Sprague Dawley rats.”, “120, 168, 240, 336, 408, 504” for “96”
In a further data set the target is T2, hAMY1R (Homo sapiens, UniProt O60894+P30988).
T2 construct: expressed in transfected cells
T2 sequence (O60894 27-148 partner, one chain of several): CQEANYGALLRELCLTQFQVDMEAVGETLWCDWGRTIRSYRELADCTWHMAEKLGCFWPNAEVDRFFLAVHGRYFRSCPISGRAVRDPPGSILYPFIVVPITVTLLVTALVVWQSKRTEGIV
As to the kind of experiment: hAMY1R cAMP functional activity (HTRF). As to conditions: ±SE; UMUC3 cells overexpressing hAMY1R; relative EC50. It is filed as cell-based. Here is the method:
The AMY1 and CT receptors are GPCRs that are functionally coupled to Gas proteins. […] In vitro activity of peptides is measured by the amount of cAMP formed in human AMY1R and CTR overexpressed cells.
Human AMY1R stable cell lines are generated by further transfecting human RAMP1-pCMVpuroPB (T14213) into UMUC3 hCTR clone cells. After selection, the mRNA levels human RAMP1 from different clones are measured to confirm the expression of human AMY1R.
hAMY1R cells are cultured in MEM 1× (Corning) supplemented with 10% FBS, 1% antibiotic/antimycotic solution, 1 mM sodium pyruvate, 1×MEM NEAA, 1× GlutaMAX-I, 200 μg/mL hygromycin B, and 0.4 μg/mL puromycin. The hCTR cells are cultured in the same medium lacking the puromycin. Cultured cells are grown to 70% confluency and then incubated overnight with fresh medium.
Peptides diluted in DMSO are added (200 nL/well) in a 1:3 dilution series using ECHO acoustic liquid handler (Beckman). Cultured cells are detached with TrypLE Express (Gibco), resuspended in assay buffer, and 10 μL containing 1200 cells/well (hCTR) or 1500 cells/well (hAMY1R) are dispensed into each well. The plates are incubated at room temperature for 1 hour.
The amount of intracellular cAMP is quantitated using HTRF technology (Homogeneous Time Resolved Fluorescence; Cisbio) as per vendor instructions. Briefly, 10 μL cAMP-d2 conjugate and 10 μL anti-cAMP-cryptate conjugate in lysis buffer are incubated with the treated cells at room temperature for 60 min. […] The raw data are converted to cAMP amount (pmol/well) using a cAMP standard curve generated for each experiment.
Background: In TR-FRET formats the signal depends on donor and acceptor labels being close together.

Where [5] appears, read: male, cynomolgus monkey, plasma, n = 3.

Description for CD4+ T cells: This assay assesses the ability of tested antibodies or tested MAPPS peptides to activate CD4+ T cells by inducing cellular proliferation. CD8+ T cell depleted PBMC's are prepared and labeled with CFSE. Each sample is tested with media control, keyhole limpet haemocyanin (KLH; positive clinical benchmark control), tested antibodies, or tested MAPPS peptides. Cultures are incubated for 7 days. On day 7, samples are analyzed by flow cytometry.

Take `CC(C)C[C@H](NC(=O)[C@H](CCCN)NC(=O)CNC(=O)[C@@H](NC(=O)[C@H](C)NC(=O)[C@@H]1CSCSC[C@H](NC(=O)CC[C@H](N)C(=O)O)C(=O)N[C@@H](CC(N)=O)C(=O)N[C@@H]([C@@H](C)O)C(=O)N[C@@H](C)C(=O)N[C@@H]([C@@H](C)O)C(=O)N1)[C@@H](C)O)C(=O)N[C@@H](C)C(=O)N[C@@H](CCC(=O)O)C(=O)N[C@@](C)(Cc1ccccc1)C(=O)N[C@@H](CC(C)C)C(=O)N[C@H](C(=O)N[C@@H](CCCNC(=N)N)C(=O)N[C@@H](CO)C(=O)N[C@@H](CO)C(=O)N[C@@H](CC(N)=O)C(=O)N(C)[C@@H](CC(N)=O)C(=O)N[C@@H](Cc1ccccc1)C(=O)NCC(=O)N1CCC[C@H]1C(=O)N[C@@H](CCCCNC(=O)CC[C@H](NC(=O)CC[C@H](NC(=O)CCCCCCCCCCCCCCCCCCC(=O)O)C(=O)O)C(=O)O)C(=O)N[C@@H](CC(C)C)C(=O)N1CCC[C@H]1C(=O)N1CCC[C@H]1C(=O)N[C@H](C(=O)N[C@@H](CCC(=O)O)C(=O)N[C@H](C(=O)NCC(=O)N[C@@H](CO)C(=O)N[C@@H](CC(N)=O)C(=O)N[C@H](C(=O)N[C@@H](Cc1ccc(O)cc1)C(N)=O)[C@@H](C)O)C(C)C)[C@@H](C)O)C(C)C` [Compound II] (γGlu-CNTATCATG[Orn]LAE[αMeF]LVRSSN[NMeN]FGPK([γGlu-γGlu-C20 diacid])LPPTEVGSNTY-NH2; linker 1-6 via CH2): in data set [1], the Ki amounted to 202 ± 45 nM. For the same compound, in data set [2] (rat, plasma, n = 3), the Tmax amounted to 24 h. In data set [2] (n = 3), this compound displayed an AUCINF/D of 473 ± 63.8 hr * kg * nmol/L/nmol and a Cmax/D of 4.9 ± 0.9 kg * nmol/L/nmol. In the data set on CD4+ T cells, the “T Cell Proliferation Assay: protein, immunogenicity risk” value is “Low Risk” and the “T Cell Proliferation Assay: protein, positive donors” value is recorded as “(0/9”. For the same compound, the “Pre-existing Reactivity 90th percentile T2 inhibition” value in data set [3] stood at 48.8%. Besides, in data set [4] (setting [5]), the Tmax came to 64 ± 13.9 h. In data set [4] (n = 3), this compound returned an AUCINF/D of 1752 ± 313 hr * kg * nmol/L/nmol and a Cmax/D of 6.7 ± 1.0 kg * nmol/L/nmol. This compound displayed an EC50 at hAMY1R of 0.075 ± 0.012 nM.
As to `CC[C@H](C)[C@H](NC(=O)[C@@H]1CCCN1C(=O)CNC(=O)[C@H](Cc1ccccc1)NC(=O)[C@H](CC(N)=O)NC(=O)[C@H](Cc1c[nH]cn1)NC(=O)[C@H](CO)NC(=O)[C@H](CO)NC(=O)[C@H](CCCNC(=N)N)NC(=O)[C@@H](NC(=O)[C@H](CC(C)C)NC(=O)[C@H](Cc1ccccc1)NC(=O)[C@H](CCC(=O)O)NC(=O)[C@H](C)NC(=O)[C@](C)(CC(C)C)NC(=O)[C@H](CCCN)NC(=O)CNC(=O)[C@@H](NC(=O)[C@H](C)NC(=O)[C@@H]1CSCSC[C@H](NC(=O)[C@@H](N)CCCCNC(=O)CC[C@H](NC(=O)CC[C@H](NC(=O)CCCCCCCCCCCCCCCCCCC(=O)O)C(=O)O)C(=O)O)C(=O)N[C@@H](CCC(=O)O)C(=O)N[C@@H]([C@@H](C)O)C(=O)N[C@@H](C)C(=O)N[C@@H]([C@@H](C)O)C(=O)N1)[C@@H](C)O)C(C)C)C(=O)N[C@@H](CC(C)C)C(=O)N1CCC[C@H]1C(=O)N1CCC[C@H]1C(=O)N[C@H](C(=O)N[C@@H](CCC(=O)O)C(=O)N[C@H](C(=O)NCC(=O)N[C@@H](CO)C(=O)N[C@@H](CC(N)=O)C(=O)N[C@H](C(=O)N[C@@H](Cc1ccc(O)cc1)C(N)=O)[C@@H](C)O)C(C)C)[C@@H](C)O` [Compound VIII] (H-K([γGlu-γGlu-C20 diacid])CETATCATG[Orn][αMeL]AEFLVRSSHNFGPILPPTEVGSNTY-NH2; linker 2-7 via CH2), the inhibition constant Ki in data set [1] came to 927 ± 120 nM. In data set [2] (rat, plasma, n = 3), the CL/F is 3.7 mL/h/kg and the Tmax is 16 ± 6.9 h. In addition, the half-life in data set [2] (rat, plasma, n = 3, read-out: T l/2 (converted)) is 2180 ± 176 min. In data set [2] (n = 3), this compound yielded an AUCINF/D of 270 ± 22.4 hr * kg * nmol/L/nmol and a Cmax/D of 3.8 ± 0.4 kg * nmol/L/nmol. Also, in the data set with CD4+ T cells, the “T Cell Proliferation Assay: protein, immunogenicity risk” value is given as “Low Risk” and the “T Cell Proliferation Assay: protein, positive donors” value is “(1/9”. Further, the “Pre-existing Reactivity 90th percentile T2 inhibition” value in data set [3] is 51.4%. In data set [4] (setting [5]), the CL/F was 1.07 mL/h/kg and the Tmax was 28 ± 18.3 h. For the same compound, in data set [4] (male, cynomolgus monkey, plasma, n = 3, read-out: T½ (converted)), the half-life is 2.58 ± 0.196 days. In data set [4] (n = 3), this compound had an AUCINF/D of 942 ± 67 hr * kg * nmol/L/nmol and a Cmax/D of 7.2 ± 0.3 kg * nmol/L/nmol. On hAMY1R, a half-maximal response (EC50) required 0.107 ± 0.02 nM.

(Values after patent publication US12551532B2, “Long-acting amylin receptor agonists and uses thereof” (Eli Lilly and Company, priority 2021, dated 2026).)
